Measurements taken from publication PMC10458458, “Characterization of Anticancer Effects of the Analogs of DJ4, a Novel Selective Inhibitor of ROCK and MRCK Kinases” (Pharmaceuticals, 2023).

Assays:
Test in all cases: KINOMEscan competition binding assay
[1] = molecular target: T1, FLT3 (Homo sapiens, UniProt P36888); details: FLT3, 10 µM
T1 construct: purchased DiscoverX Corporation (Lead Hunter Discovery Services, KINOMEscan)
From the text: (§1) To examine specificity of DJ4 to different human kinases, we performed a KINOMEscan profiling assay (DiscoverX, Fremont, CA, USA). The KINOMEscan assay consists of a panel of more than 480 kinases of different classes (TK/TKL/STE/CK1/AGC/CAMK/CMGC/others), including clinically relevant mutants, atypical kinases, lipid, and pathogen kinases. […] However, we also recognized the limitations of DJ4 that preclude its clinical development and the need for further optimization of the DJ4 chemotype.
(§2) The KINOMEscan®, in vitro competition binding assay, was performed by Lead Hunter Discovery Services (DiscoverX Corporation, Fremont, CA, USA) to determine the kinase specificity of DJ4, a novel kinase inhibitor [19, 44]. The KINOMEscan® panel consists of more than 480 kinases, including clinically relevant mutants, lipid, atypical, and pathogen kinases, plus a growing panel of activation-state specific assays. The primary screen was performed using a single concentration of 10 µM, and the results for DJ4 binding interactions are reported as percent of control (%Ctrl). The %Ctrl is calculated as follows: [(DJ4 signal-positive control signal)/(negative control DMSO signal-positive control signal)] x […]. The human kinome tree annotation for DJ4 is plotted with Reaction Biology’s Kinase Mapper and KinMap web interface tool http://kinhub.org/kinmap (accessed on 09 January 2023).

[2] = molecular target: T2, CDK14 (Homo sapiens, UniProt O94921); details: CDK14, 10 µM
T2 construct: purchased DiscoverX Corporation (Lead Hunter Discovery Services, KINOMEscan)
From the text: as §1, §2

[3] = molecular target: T3, CDK9 (Homo sapiens, UniProt P50750); details: CDK9, 10 µM
T3 construct: purchased DiscoverX Corporation (Lead Hunter Discovery Services, KINOMEscan)
From the text: as §1, §2

[4] = molecular target: T4, MRCK1 (Homo sapiens, UniProt Q5VT25); details: MRCK1, 10 µM
T4 construct: purchased DiscoverX Corporation (Lead Hunter Discovery Services, KINOMEscan)
From the text: as §1, §2

[5] = molecular target: T5, CDK8 (Homo sapiens, UniProt P49336); details: CDK8, 10 µM
T5 construct: purchased DiscoverX Corporation (Lead Hunter Discovery Services, KINOMEscan)
From the text: as §1, §2

[6] = molecular target: T6, MRCK2 (Homo sapiens, UniProt Q9Y5S2); details: MRCK2, 10 µM
T6 construct: purchased DiscoverX Corporation (Lead Hunter Discovery Services, KINOMEscan)
From the text: as §1, §2

[7] = molecular target: T7, KIT (Homo sapiens, UniProt P10721)
T7 construct: purchased DiscoverX Corporation (Lead Hunter Discovery Services, KINOMEscan)
From the text: as §1, §2

[8] = molecular target: T8, CDK7 (Homo sapiens, UniProt P50613); details: CDK7, 10 µM
T8 construct: purchased DiscoverX Corporation (Lead Hunter Discovery Services, KINOMEscan)
From the text: as §1, §2

Measured: inhibition at 10 µM

T7 sequence (P10721 26-976): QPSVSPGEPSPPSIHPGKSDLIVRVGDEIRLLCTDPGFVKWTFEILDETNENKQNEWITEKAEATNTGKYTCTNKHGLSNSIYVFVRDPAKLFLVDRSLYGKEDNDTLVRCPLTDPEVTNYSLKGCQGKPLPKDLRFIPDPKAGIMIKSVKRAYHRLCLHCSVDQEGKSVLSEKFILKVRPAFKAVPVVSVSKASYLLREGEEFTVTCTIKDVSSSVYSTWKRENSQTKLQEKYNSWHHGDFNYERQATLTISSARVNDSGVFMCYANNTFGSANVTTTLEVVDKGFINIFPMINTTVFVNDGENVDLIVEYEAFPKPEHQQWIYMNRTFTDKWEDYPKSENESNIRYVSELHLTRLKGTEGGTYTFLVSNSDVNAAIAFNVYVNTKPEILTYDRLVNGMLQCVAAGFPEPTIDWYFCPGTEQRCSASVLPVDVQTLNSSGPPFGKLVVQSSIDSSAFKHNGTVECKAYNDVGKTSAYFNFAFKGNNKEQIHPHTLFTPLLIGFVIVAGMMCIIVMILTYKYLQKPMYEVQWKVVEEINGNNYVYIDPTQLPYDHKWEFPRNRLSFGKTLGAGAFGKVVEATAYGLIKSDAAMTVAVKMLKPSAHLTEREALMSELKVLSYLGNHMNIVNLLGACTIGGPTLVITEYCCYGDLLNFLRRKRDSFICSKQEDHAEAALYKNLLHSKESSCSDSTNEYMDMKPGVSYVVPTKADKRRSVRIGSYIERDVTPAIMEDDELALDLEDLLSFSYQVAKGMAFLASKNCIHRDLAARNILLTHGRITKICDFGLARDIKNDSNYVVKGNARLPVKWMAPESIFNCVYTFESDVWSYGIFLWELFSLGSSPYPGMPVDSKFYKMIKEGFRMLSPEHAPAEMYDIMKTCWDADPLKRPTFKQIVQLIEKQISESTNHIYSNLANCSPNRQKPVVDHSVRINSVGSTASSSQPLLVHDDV
T8 sequence (P50613 whole entry): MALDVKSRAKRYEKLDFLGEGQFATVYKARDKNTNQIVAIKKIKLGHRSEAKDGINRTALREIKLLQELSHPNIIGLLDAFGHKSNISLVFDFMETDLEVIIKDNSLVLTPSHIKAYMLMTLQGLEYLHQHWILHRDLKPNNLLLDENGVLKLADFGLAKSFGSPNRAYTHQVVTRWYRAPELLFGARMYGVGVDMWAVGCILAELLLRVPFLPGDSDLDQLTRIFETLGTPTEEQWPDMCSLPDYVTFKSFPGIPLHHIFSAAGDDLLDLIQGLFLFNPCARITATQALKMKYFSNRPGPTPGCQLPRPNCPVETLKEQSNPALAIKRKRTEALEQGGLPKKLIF
T6 sequence (Q9Y5S2 whole entry): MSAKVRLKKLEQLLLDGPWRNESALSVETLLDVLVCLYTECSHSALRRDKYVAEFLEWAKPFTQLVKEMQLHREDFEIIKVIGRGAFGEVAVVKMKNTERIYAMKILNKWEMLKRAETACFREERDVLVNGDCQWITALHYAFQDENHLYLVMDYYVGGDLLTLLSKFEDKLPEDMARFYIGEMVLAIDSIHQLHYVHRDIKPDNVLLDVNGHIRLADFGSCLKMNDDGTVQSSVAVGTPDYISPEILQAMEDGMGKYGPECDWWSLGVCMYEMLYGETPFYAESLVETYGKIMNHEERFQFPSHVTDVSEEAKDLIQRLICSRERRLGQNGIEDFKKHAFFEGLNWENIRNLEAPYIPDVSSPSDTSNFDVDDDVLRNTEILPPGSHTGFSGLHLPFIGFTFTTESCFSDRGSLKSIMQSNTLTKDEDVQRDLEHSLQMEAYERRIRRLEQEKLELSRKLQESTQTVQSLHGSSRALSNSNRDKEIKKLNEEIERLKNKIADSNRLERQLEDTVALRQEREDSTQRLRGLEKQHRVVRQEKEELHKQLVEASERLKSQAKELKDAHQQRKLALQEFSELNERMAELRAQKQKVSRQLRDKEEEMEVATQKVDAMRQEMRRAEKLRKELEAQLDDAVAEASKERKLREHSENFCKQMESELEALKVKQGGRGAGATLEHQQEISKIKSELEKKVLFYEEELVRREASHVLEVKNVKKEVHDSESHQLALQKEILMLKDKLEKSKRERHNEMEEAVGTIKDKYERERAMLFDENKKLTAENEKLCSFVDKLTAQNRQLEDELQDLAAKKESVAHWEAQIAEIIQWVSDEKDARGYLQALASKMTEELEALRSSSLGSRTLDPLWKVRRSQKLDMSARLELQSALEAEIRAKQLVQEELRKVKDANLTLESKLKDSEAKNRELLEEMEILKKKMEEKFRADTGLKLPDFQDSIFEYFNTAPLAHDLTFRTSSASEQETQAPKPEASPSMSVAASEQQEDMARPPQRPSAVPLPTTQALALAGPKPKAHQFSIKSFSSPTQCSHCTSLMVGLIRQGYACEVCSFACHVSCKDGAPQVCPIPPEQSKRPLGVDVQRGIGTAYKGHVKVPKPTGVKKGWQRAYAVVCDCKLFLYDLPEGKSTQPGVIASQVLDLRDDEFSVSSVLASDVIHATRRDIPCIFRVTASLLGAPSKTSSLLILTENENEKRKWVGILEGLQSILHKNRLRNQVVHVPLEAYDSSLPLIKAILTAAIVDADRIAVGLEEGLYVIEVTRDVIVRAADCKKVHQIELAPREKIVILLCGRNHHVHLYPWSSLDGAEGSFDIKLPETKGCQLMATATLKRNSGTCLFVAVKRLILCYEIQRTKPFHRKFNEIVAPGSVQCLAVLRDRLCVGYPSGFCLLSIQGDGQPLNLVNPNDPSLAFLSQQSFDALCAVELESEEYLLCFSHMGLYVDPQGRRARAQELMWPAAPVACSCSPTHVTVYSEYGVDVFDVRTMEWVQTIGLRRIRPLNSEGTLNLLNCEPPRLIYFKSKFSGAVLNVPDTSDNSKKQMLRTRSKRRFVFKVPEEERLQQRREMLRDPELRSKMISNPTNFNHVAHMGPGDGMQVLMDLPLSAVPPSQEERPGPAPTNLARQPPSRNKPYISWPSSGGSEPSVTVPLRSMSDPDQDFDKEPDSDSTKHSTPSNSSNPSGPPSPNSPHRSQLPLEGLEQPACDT
T5 sequence (P49336 whole entry): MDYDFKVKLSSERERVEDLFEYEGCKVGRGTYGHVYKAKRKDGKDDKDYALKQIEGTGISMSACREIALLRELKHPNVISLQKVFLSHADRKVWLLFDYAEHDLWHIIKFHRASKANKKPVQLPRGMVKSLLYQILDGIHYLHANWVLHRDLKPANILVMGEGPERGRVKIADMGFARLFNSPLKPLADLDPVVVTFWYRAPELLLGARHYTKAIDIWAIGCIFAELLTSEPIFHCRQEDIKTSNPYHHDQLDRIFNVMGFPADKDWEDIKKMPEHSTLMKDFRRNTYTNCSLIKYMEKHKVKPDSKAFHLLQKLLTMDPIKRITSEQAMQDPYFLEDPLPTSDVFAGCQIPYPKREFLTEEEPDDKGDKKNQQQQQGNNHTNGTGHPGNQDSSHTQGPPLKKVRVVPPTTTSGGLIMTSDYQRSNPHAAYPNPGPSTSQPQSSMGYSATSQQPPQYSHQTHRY
T1 sequence (P36888 27-993): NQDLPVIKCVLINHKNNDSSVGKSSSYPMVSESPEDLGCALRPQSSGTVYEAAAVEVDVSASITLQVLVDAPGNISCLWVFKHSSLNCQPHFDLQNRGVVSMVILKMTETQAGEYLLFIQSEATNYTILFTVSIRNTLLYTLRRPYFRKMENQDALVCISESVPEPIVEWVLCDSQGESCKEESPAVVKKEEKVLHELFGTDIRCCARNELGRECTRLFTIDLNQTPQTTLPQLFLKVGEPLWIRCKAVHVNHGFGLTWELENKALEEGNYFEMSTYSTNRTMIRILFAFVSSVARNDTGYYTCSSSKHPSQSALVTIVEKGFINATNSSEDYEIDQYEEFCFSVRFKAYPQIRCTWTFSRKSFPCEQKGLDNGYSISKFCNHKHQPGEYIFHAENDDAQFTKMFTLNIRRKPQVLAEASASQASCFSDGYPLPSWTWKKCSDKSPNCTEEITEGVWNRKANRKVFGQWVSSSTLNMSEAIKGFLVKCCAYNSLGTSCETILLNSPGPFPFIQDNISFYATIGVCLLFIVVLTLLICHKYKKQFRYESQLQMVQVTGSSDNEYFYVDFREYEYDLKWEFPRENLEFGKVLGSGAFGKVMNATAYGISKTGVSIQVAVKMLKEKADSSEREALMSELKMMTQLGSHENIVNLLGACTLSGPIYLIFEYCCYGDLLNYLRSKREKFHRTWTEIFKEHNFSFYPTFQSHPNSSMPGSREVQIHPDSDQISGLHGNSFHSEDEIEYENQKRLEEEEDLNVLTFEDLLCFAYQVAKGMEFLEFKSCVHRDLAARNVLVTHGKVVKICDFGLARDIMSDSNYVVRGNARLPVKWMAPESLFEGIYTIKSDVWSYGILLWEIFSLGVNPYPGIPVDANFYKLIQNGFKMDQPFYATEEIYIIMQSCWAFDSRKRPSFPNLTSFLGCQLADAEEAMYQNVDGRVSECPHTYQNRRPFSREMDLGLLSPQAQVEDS
T3 sequence (P50750 whole entry): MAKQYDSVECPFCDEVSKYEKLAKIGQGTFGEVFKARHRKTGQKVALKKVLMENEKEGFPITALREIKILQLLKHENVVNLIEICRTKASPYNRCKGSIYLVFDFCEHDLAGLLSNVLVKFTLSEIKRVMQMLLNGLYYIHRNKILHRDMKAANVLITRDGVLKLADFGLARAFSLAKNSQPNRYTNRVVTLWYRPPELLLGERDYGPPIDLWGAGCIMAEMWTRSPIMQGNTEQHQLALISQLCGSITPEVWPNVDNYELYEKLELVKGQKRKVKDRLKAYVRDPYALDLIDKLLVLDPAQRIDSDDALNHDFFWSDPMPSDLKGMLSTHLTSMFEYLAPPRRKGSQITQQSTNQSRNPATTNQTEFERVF

O=C1N/C(=N\CCc2ccccc2)S/C1=C/c1c[nH]c2ncccc12 [DJ4]
> 98%: all assays above
